Source: ChEMBL document CHEMBL3885881, “DrugMatrix”

Organism: Rattus norvegicus
Assay: DrugMatrix - Regimen: Daily Repeat
Type: toxicity, organism-based, Sprague-Dawley
Set-up: regimen Daily Repeat, gender Male, age 6-8 weeks
Conditions: in vivo, po, route oral GAVAGE, […]; for ABSOLUTE BASOPHIL / ABSOLUTE EOSINOPHIL / ABSOLUTE LYMPHOCYTE / ABSOLUTE MONOCYTE / ABSOLUTE SEGMENTED NEUTROPHIL / BASOPHIL / EOSINOPHIL / ERYTHROCYTE COUNT / HEMATOCRIT / HEMOGLOBIN / LEUKOCYTE COUNT / LYMPHOCYTE / MEAN CORPUSCULAR HEMOGLOBIN / MEAN CORPUSCULAR HEMOGLOBIN CONCENTRATION / MEAN CORPUSCULAR VOLUME / MONOCYTE / NEUTROPHIL / NUCLEATED RED BLOOD CELLS / PLATELET COUNT: tissue Blood; for ALANINE AMINOTRANSFERASE / ALBUMIN / ALKALINE PHOSPHATASE / ASPARTATE AMINOTRANSFERASE / BLOOD UREA NITROGEN / CARBON DIOXIDE / CHLORIDE / CHOLESTEROL / CREATINE PHOSPHOKINASE / CREATININE / GLUCOSE / LACTATE DEHYDROGENASE / LIPASE / PHOSPHORUS / POTASSIUM / SODIUM / TOTAL BILIRUBIN / TOTAL PROTEIN / URIC ACID: tissue Plasma
[1] = 30 mg/kg, 120 h, dose level Low, time 5 day
[2] = 1000 mg/kg, 72 h, dose level High, time 3 day
[3] = 1000 mg/kg, 120 h, dose level High, time 5 day

CCCCC(=O)N(Cc1ccc(-c2ccccc2-c2nnn[nH]2)cc1)[C@H](C(=O)O)C(C)C
ABSOLUTE BASOPHIL [1]: 0 CELLS/uL | ABSOLUTE EOSINOPHIL [1]: 0 CELLS/uL | ABSOLUTE LYMPHOCYTE [1]: 14863.33 CELLS/uL | ABSOLUTE MONOCYTE [1]: 58.33 CELLS/uL | ABSOLUTE SEGMENTED NEUTROPHIL [1]: 1411.67 CELLS/uL | BASOPHIL [1]: 0% | EOSINOPHIL [1]: 0% | ERYTHROCYTE COUNT [1]: 5.54 x10E6/uL | HEMATOCRIT [1]: 34.23% | HEMOGLOBIN [1]: 13.5 G/DL | LEUKOCYTE COUNT [1]: 16.33 x10E3/uL | LYMPHOCYTE [1]: 91% | MEAN CORPUSCULAR HEMOGLOBIN [1]: 24.4 pg | MEAN CORPUSCULAR HEMOGLOBIN CONCENTRATION [1]: 39.43 G/DL | MEAN CORPUSCULAR VOLUME [1]: 61.87 fL | MONOCYTE [1]: 0.33% | NEUTROPHIL [1]: 8.67% | NUCLEATED RED BLOOD CELLS [1]: 0 /100WBC | PLATELET COUNT [1]: 1196 x10E3/uL | ALANINE AMINOTRANSFERASE [1]: 63.67 u/L | ALBUMIN [1]: 4.07 G/DL | ALKALINE PHOSPHATASE [1]: 455.33 u/L | ASPARTATE AMINOTRANSFERASE [1]: 87.33 u/L | BLOOD UREA NITROGEN [1]: 15.67 mg/dL | CARBON DIOXIDE [1]: 23.33 mmol/L | CHLORIDE [1]: 102.33 MEQ/L | CHOLESTEROL [1]: 63 mg/dL | CREATINE PHOSPHOKINASE [1]: 339 u/L | CREATININE [1]: 0.18 mg/dL | GLUCOSE [1]: 206.33 mg/dL | LACTATE DEHYDROGENASE [1]: 183 u/L | LIPASE [1]: 9.33 u/L | PHOSPHORUS [1]: 12.9 mg/dL | POTASSIUM [1]: 6.08 MEQ/L | SODIUM [1]: 140.77 MEQ/L | TOTAL BILIRUBIN [1]: 0.13 mg/dL | TOTAL PROTEIN [1]: 5.6 G/DL | URIC ACID [1]: 2.2 mg/dL | ABSOLUTE BASOPHIL [2]: 0 CELLS/uL | ABSOLUTE EOSINOPHIL [2]: 0 CELLS/uL | ABSOLUTE LYMPHOCYTE [2]: 6741.67 CELLS/uL | ABSOLUTE MONOCYTE [2]: 52 CELLS/uL | ABSOLUTE SEGMENTED NEUTROPHIL [2]: 673 CELLS/uL | BASOPHIL [2]: 0% | EOSINOPHIL [2]: 0% | ERYTHROCYTE COUNT [2]: 5.05 x10E6/uL | HEMATOCRIT [2]: 31% | HEMOGLOBIN [2]: 12.27 G/DL | LEUKOCYTE COUNT [2]: 7.47 x10E3/uL | LYMPHOCYTE [2]: 90.67% | MEAN CORPUSCULAR HEMOGLOBIN [2]: 24.33 pg | MEAN CORPUSCULAR HEMOGLOBIN CONCENTRATION [2]: 39.6 G/DL | MEAN CORPUSCULAR VOLUME [2]: 61.43 fL | MONOCYTE [2]: 0.67% | NEUTROPHIL [2]: 8.67% | NUCLEATED RED BLOOD CELLS [2]: 0 /100WBC | PLATELET COUNT [2]: 1278.67 x10E3/uL | ALANINE AMINOTRANSFERASE [2]: 56.67 u/L | ALBUMIN [2]: 3.8 G/DL | ALKALINE PHOSPHATASE [2]: 381.67 u/L | ASPARTATE AMINOTRANSFERASE [2]: 79.67 u/L | BLOOD UREA NITROGEN [2]: 47.33 mg/dL | CARBON DIOXIDE [2]: 23 mmol/L | CHLORIDE [2]: 100.67 MEQ/L | CHOLESTEROL [2]: 69.33 mg/dL | CREATINE PHOSPHOKINASE [2]: 401 u/L | CREATININE [2]: 0.56 mg/dL | GLUCOSE [2]: 149 mg/dL | LACTATE DEHYDROGENASE [2]: 105.67 u/L | LIPASE [2]: 10 u/L | PHOSPHORUS [2]: 9.53 mg/dL | POTASSIUM [2]: 7.33 MEQ/L | SODIUM [2]: 138.9 MEQ/L | TOTAL BILIRUBIN [2]: 0.2 mg/dL | TOTAL PROTEIN [2]: 5.27 G/DL | URIC ACID [2]: 1.17 mg/dL | ABSOLUTE BASOPHIL [3]: 0 CELLS/uL | ABSOLUTE EOSINOPHIL [3]: 82 CELLS/uL | ABSOLUTE LYMPHOCYTE [3]: 18525.33 CELLS/uL | ABSOLUTE MONOCYTE [3]: 112.67 CELLS/uL | ABSOLUTE SEGMENTED NEUTROPHIL [3]: 746.67 CELLS/uL | BASOPHIL [3]: 0% | EOSINOPHIL [3]: 0.33% | ERYTHROCYTE COUNT [3]: 5.79 x10E6/uL | HEMATOCRIT [3]: 35.4% | HEMOGLOBIN [3]: 13.73 G/DL | LEUKOCYTE COUNT [3]: 19.47 x10E3/uL | LYMPHOCYTE [3]: 95% | MEAN CORPUSCULAR HEMOGLOBIN [3]: 23.7 pg | MEAN CORPUSCULAR HEMOGLOBIN CONCENTRATION [3]: 38.8 G/DL | MEAN CORPUSCULAR VOLUME [3]: 61.13 fL | MONOCYTE [3]: 0.67% | NEUTROPHIL [3]: 4% | NUCLEATED RED BLOOD CELLS [3]: 0 /100WBC | PLATELET COUNT [3]: 1264 x10E3/uL | ALANINE AMINOTRANSFERASE [3]: 55.33 u/L | ALBUMIN [3]: 4.03 G/DL | ALKALINE PHOSPHATASE [3]: 436 u/L | ASPARTATE AMINOTRANSFERASE [3]: 82.33 u/L | BLOOD UREA NITROGEN [3]: 56 mg/dL | CARBON DIOXIDE [3]: 23.33 mmol/L | CHLORIDE [3]: 105 MEQ/L | CHOLESTEROL [3]: 70.67 mg/dL | CREATINE PHOSPHOKINASE [3]: 365 u/L | CREATININE [3]: 0.42 mg/dL | GLUCOSE [3]: 175.33 mg/dL | LACTATE DEHYDROGENASE [3]: 181.67 u/L | LIPASE [3]: 10.33 u/L | PHOSPHORUS [3]: 11.47 mg/dL | POTASSIUM [3]: 7.6 MEQ/L | SODIUM [3]: 140.73 MEQ/L | TOTAL BILIRUBIN [3]: 0.17 mg/dL | TOTAL PROTEIN [3]: 5.87 G/DL | URIC ACID [3]: 1.6 mg/dL
